Data from patent US9255295B2, “Method for evaluating the sensitizing potential of a test compound” (IMMUNOSEARCH, priority 2010, dated 2016).
Like-named read-outs stand apart in the source and are kept apart here.

System: ARE gene family (AKR1B10, AKR1C1, AKR1C2, CYP1B1, FTH1P, FTL, G6PD, GCLM, NQO2, SLC7A11, TXNRD1, UGT1A1, UGT1A9, YWHAZ, CD36, CYP1A1, GCLC, HMOX1, NQO1, PSME2 …)

O=CC=O [Glyoxal]
AHR NUMBER OF GENES grade (0.1%): 0 (if this expression is lower, the grade is 0) | AKR1B10 NUMBER OF GENES grade (0.1%): 0 (if this expression is lower, the grade is 0) | AKR1C1 NUMBER OF GENES grade (0.1%): 0 (if this expression is lower, the grade is 0) | AKR1C2 NUMBER OF GENES grade (0.1%): 0 (if this expression is lower, the grade is 0) | ARE >1.3 (number of genes) (0.1%): 0 | CD36 NUMBER OF GENES grade (0.1%): 0 (if this expression is lower, the grade is 0) | CYP1A1 NUMBER OF GENES grade (0.1%): 0 (if this expression is lower, the grade is 0) | CYP1B1 NUMBER OF GENES grade (0.1%): 0 (if this expression is lower, the grade is 0) | FTH1P NUMBER OF GENES grade (0.1%): 0 (if this expression is lower, the grade is 0) | FTL NUMBER OF GENES grade (0.1%): 0 (if this expression is lower, the grade is 0) | GCLC NUMBER OF GENES grade (0.1%): 0 (if this expression is lower, the grade is 0) | GCLM NUMBER OF GENES grade (0.1%): 0 (if this expression is lower, the grade is 0) | HMOX1 NUMBER OF GENES grade (0.1%): 0 (if this expression is lower, the grade is 0) | NQO1 NUMBER OF GENES grade (0.1%): 0 (if this expression is lower, the grade is 0) | NQO2 NUMBER OF GENES grade (0.1%): 0 (if this expression is lower, the grade is 0) | S100A8 NUMBER OF GENES grade (0.1%): 0 (if this expression is lower, the grade is 0) | SLC7A11 NUMBER OF GENES grade (0.1%): 0 (if this expression is lower, the grade is 0) | TOTAL ARE (number of genes) (0.1%): 0 | TXNRD1 NUMBER OF GENES grade (0.1%): 0 (if this expression is lower, the grade is 0) | UGT1A1 NUMBER OF GENES grade (0.1%): 0 (if this expression is lower, the grade is 0) | UGT1A9 NUMBER OF GENES grade (0.1%): 0 (if this expression is lower, the grade is 0) | AHR expression (0.1%, compared to the control): 0.9 | AKR1B10 expression (0.1%, compared to the control): 0.6 | AKR1C1 expression (0.1%, compared to the control): 0.8 | AKR1C2 expression (0.1%, compared to the control): 0.8 | CD36 expression (0.1%, compared to the control): 1.1 | CYP1A1 expression (0.1%, compared to the control): 0.6 | CYP1B1 expression (0.1%, compared to the control): 0.6 | FTH1P expression (0.1%, compared to the control): 0.9 | FTL expression (0.1%, compared to the control): 1.0 | GCLC expression (0.1%, compared to the control): 1.0 | GCLM expression (0.1%, compared to the control): 0.9 | HMOX1 expression (0.1%, compared to the control): 1.0 | NQO1 expression (0.1%, compared to the control): 1.0 | NQO2 expression (0.1%, compared to the control): 0.8 | S100A8 expression (0.1%, compared to the control): 0.7 | SLC7A11 expression (0.1%, compared to the control): 1.0 | TXNRD1 expression (0.1%, compared to the control): 1.0 | UGT1A1 expression (0.1%, compared to the control): 0.9 | UGT1A9 expression (0.1%, compared to the control): 0.3 | AHR NUMBER OF GENES grade (1%): 0 (if this expression is lower, the grade is 0) | AKR1B10 NUMBER OF GENES grade (1%): 0 (if this expression is lower, the grade is 0) | AKR1C1 NUMBER OF GENES grade (1%): 0 (if this expression is lower, the grade is 0) | AKR1C2 NUMBER OF GENES grade (1%): 0 (if this expression is lower, the grade is 0) | ARE >1.3 (number of genes) (1%): 1 | CD36 expression compared to control (1%): 1.1 | CD36 grade (NUMBER OF GENES) (1%): 0 (if this expression is lower, the grade is 0) | CYP1A1 NUMBER OF GENES grade (1%): 0 (if this expression is lower, the grade is 0) | CYP1B1 NUMBER OF GENES grade (1%): 0 (if this expression is lower, the grade is 0) | FTH1P NUMBER OF GENES grade (1%): 0 (if this expression is lower, the grade is 0) | FTL NUMBER OF GENES grade (1%): 0 (if this expression is lower, the grade is 0) | GCLC NUMBER OF GENES grade (1%): 0 (if this expression is lower, the grade is 0) | GCLM NUMBER OF GENES grade (1%): 0 (if this expression is lower, the grade is 0) | HMOX1 NUMBER OF GENES grade (1%): 0 (if this expression is lower, the grade is 0) | NQO1 NUMBER OF GENES grade (1%): 0 (if this expression is lower, the grade is 0) | NQO2 NUMBER OF GENES grade (1%): 0 (if this expression is lower, the grade is 0) | S100A8 expression compared to control (1%): 0.9 | S100A8 grade (NUMBER OF GENES) (1%): 0 (if this expression is lower, the grade is 0) | SLC7A11 NUMBER OF GENES grade (1%): 1 (If the expression is greater than 1.3 compared to the control, a grade of 11s given) | TOTAL ARE (number of genes) (1%): 1 | TXNRD1 NUMBER OF GENES grade (1%): 0 (if this expression is lower, the grade is 0) | UGT1A1 NUMBER OF GENES grade (1%): 0 (if this expression is lower, the grade is 0) | UGT1A9 NUMBER OF GENES grade (1%): 0 (if this expression is lower, the grade is 0) | AHR expression (1%, compared to the control): 1.1 | AKR1B10 expression (1%, compared to the control): 1.1 | AKR1C1 expression (1%, compared to the control): 1.0 | AKR1C2 expression (1%, compared to the control): 1.0 | CYP1A1 expression (1%, compared to the control): 0.9 | CYP1B1 expression (1%, compared to the control): 1.1 | FTH1P expression (1%, compared to the control): 1.0 | FTL expression (1%, compared to the control): 1.1 | GCLC expression (1%, compared to the control): 1.1 | GCLM expression (1%, compared to the control): 0.9 | HMOX1 expression (1%, compared to the control): 0.9 | NQO1 expression (1%, compared to the control): 1.1 | NQO2 expression (1%, compared to the control): 1.0 | SLC7A11 expression (1%, compared to the control): 1.4 | TXNRD1 expression (1%, compared to the control): 0.9 | UGT1A1 expression (1%, compared to the control): 1.2 | UGT1A9 expression (1%, compared to the control): 0.6 | AHR NUMBER OF GENES grade (10%): 0 (if this expression is lower, the grade is 0) | AKR1B10 NUMBER OF GENES grade (10%): 0 (if this expression is lower, the grade is 0)
